Results taken from article PMC12566046, “Arylpiperazinyl-Benzocycloheptapyrrole-Carboxamides Endowed with Dual Anticancer and Antiviral Activities” (Molecules, 2025).
Where two headings read alike, the source gives them in different places.

Key:
[1] = tested on: NCI-60 cell line panel; test: NCI-60 single-dose assay, whole panel; format: cell-based, human; settings: summary over the panel
Source text: (§1) We first evaluated the cytotoxic activity of tricyclic-pyrrole carboxamides 1–20 using the NCI-60 cell line panel, representing nine different human cancers: leukemia, melanoma, and cancers of the lung, colon, central nervous system (CNS), ovary, kidney, prostate, and breast (the one-dose graph for compounds 1–20 is reported in Supplementary Materials, Figures S43–S62). Compounds 1, 5, 10, 11, 17, and 20 satisfied pre-determined threshold inhibition criteria in a minimum number of cell lines; therefore, they were also tested in the full five-dose assay (Figures S63–S68 in the Supplementary Materials).

[2] = tested on: ZIKV, strain Brazil/2016/INMI1; test: ZIKV viral yield reduction assay on Huh-7 cells; format: cell-based, Zika virus; settings: Zika virus
Method: We developed a protocol to screen the potential antiviral activity of compounds 1–20 against ZIKV (strain Brazil) on Huh-7 cells, against an H1N1 IAV strain (PR/8/1934) on MDCK cells, and against SARS-CoV-2 (strain Milano) on Vero-TMPRSS. Each compound was tested in duplicate at concentrations of 50 μM, 5 μM, and 0.5 μM. Treatment was applied immediately after infection, and at 24–48 h post-infection, supernatants were collected to assess viral yield, determined as PFU/mL for ZIKV and SARS-CoV-2 or as TCID50/mL for IAV. The test allowed us to evaluate both the antiviral action and the cytotoxicity of each compound, comparing them with reference compounds, such as sofosbuvir for ZIKV and EIDD-1931 for IAV and SARS-CoV-2 (Supplementary Materials, Figures S87–S89).
Viral yield reduction assays for ZIKV and SARS-CoV-2 were performed as previously described by Plicanti. Briefly, 1 × 10^4 Huh-7 cells/well and 1.2 × 10^4 VERO TMPRSS cells/well were infected with ZIKV (MOI 1) or SARS-CoV-2 (MOI 0.05) in a primary 96-well plate for 2 h at 37 °C, 5% CO2. […] Supernatants were collected after 48 h (Huh-7) or 24 h (VERO TMPRSS), diluted 3-fold, and added onto VERO E6 or VERO TMPRSS monolayers, respectively. After 2 h at 37 °C, the inoculum was replaced with 0.75% carboxymethyl cellulose (Merck®, Darmstadt, Germany) in DMEM 2% FBS. After 48–72 h, cells were then fixed with 4% buffered formalin solution (Merck®, Darmstadt, Germany) and stained with 1% crystal violet (Merck®, Darmstadt, Germany). Titres and percentage of inhibition were calculated as follows:
PFU/mL = number of plaques*3^n/vol infection, where n is the dilution where plaques were counted:% inhibition = 100 × (1 − Titre-compound/Titre-untreated control) where Titre-compound and Titre-untreated control are the titres (PFU/mL) obtained on cells treated with compound or DMSO, respectively.
SI was obtained by dividing CC50 by EC50 for each drug/virus/cell line. Compounds with SI values ≥ 10 were active in vitro.

[3] = Cytotoxicity on uninfected Huh-7 cells (WST-8, crystal violet); settings: human, uninfected Huh-7 cells
[4] = in vitro; settings: African green monkey
[5] = tested on: MCF-7 (breast cancer cell line); test: NCI-60 single-dose assay; format: cell-based, human; settings: Homo sapiens, MCF7, read-out: growth inhibition (GI%) and cytotoxicity (negative values), MCF-7, 10^−5 M
Source text: as §1

[6] = tested on: SARS-CoV-2 VR PV10734 (strain Milano); test: microbe, parasite or virus in culture; format: cell-based
[7] = in vitro; settings: dog
[8] = tested on: HCT-116 (colon cancer cell line); test: NCI-60 single-dose assay; format: cell-based, human; settings: Homo sapiens, HCT-116, read-out: growth inhibition (GI%) and cytotoxicity (negative values)
Source text: as §1

[9] = tested on: K-562 (leukemia cell line); test: NCI-60 single-dose assay; format: cell-based; settings: Homo sapiens, K562, read-out: growth inhibition (GI%) and cytotoxicity (negative values)
Source text: as §1

[10] = tested on: CCRF-CEM (leukemia cell line); test: NCI-60 single-dose assay; format: cell-based, human; settings: Homo sapiens, read-out: growth inhibition (GI%) and cytotoxicity (negative values)
Source text: as §1

[11] = tested on: COLO 205 (colon cancer cell line); test: NCI-60 single-dose assay; format: cell-based, human; settings: Homo sapiens, COLO 205, read-out: growth inhibition (GI%) and cytotoxicity (negative values)
Source text: as §1

[12] = tested on: HCC-2998 (colon cancer cell line); test: NCI-60 single-dose assay; format: cell-based, human; settings: Homo sapiens, HCC 2998, read-out: growth inhibition (GI%) and cytotoxicity (negative values)
Source text: as §1

[13] = tested on: HCT-15 (colon cancer cell line); test: NCI-60 single-dose assay; format: cell-based, human; settings: Homo sapiens, HCT-15, read-out: growth inhibition (GI%) and cytotoxicity (negative values)
Source text: as §1

[14] = tested on: HL-60(TB) (leukemia cell line); test: NCI-60 single-dose assay; format: cell-based, human; settings: Homo sapiens, HL-60, read-out: growth inhibition (GI%) and cytotoxicity (negative values)
Source text: as §1

[15] = tested on: HT29 (colon cancer cell line); test: NCI-60 single-dose assay; format: cell-based, human; settings: Homo sapiens, HT-29, read-out: growth inhibition (GI%) and cytotoxicity (negative values)
Source text: as §1

[16] = tested on: KM12 (colon cancer cell line); test: NCI-60 single-dose assay; format: cell-based, human; settings: Homo sapiens, KM12, read-out: growth inhibition (GI%) and cytotoxicity (negative values)
Source text: as §1

[17] = tested on: M14 (melanoma cell line); test: NCI-60 single-dose assay; format: cell-based, human; settings: Homo sapiens, M14, read-out: growth inhibition (GI%) and cytotoxicity (negative values)
Source text: as §1

[18] = tested on: MOLT-4 (leukemia cell line); test: NCI-60 single-dose assay; format: cell-based, human; settings: Homo sapiens, MOLT-4, read-out: growth inhibition (GI%) and cytotoxicity (negative values)
Source text: as §1

[19] = tested on: NCI-H460 (non-small cell lung cancer cell line); test: NCI-60 single-dose assay; format: cell-based, human; settings: Homo sapiens, NCI-H460, read-out: growth inhibition (GI%) and cytotoxicity (negative values)
Source text: as §1

[20] = tested on: RPMI-8226 (leukemia cell line); test: NCI-60 single-dose assay; format: cell-based, human; settings: Homo sapiens, RPMI-8226, read-out: growth inhibition (GI%) and cytotoxicity (negative values)
Source text: as §1

[21] = tested on: SK-MEL-5 (melanoma cell line); test: NCI-60 single-dose assay; format: cell-based, human; settings: Homo sapiens, SK-MEL-5, read-out: growth inhibition (GI%) and cytotoxicity (negative values)
Source text: as §1

[22] = tested on: SR (leukemia cell line); test: NCI-60 single-dose assay; format: cell-based, human; settings: Homo sapiens, read-out: growth inhibition (GI%) and cytotoxicity (negative values)
Source text: as §1

[23] = tested on: SW-620 (colon cancer cell line); test: NCI-60 single-dose assay; format: cell-based, human; settings: Homo sapiens, SW-620, read-out: growth inhibition (GI%) and cytotoxicity (negative values)
Source text: as §1

[24] = tested on: IAV strain A/PR/8/34 (H1N1)
[25] = tested on: Vero TMPRSS cells
[26] = tested on: MDCK cells; test: Cytotoxicity on uninfected MDCK cells (WST-8, crystal violet)
[27] = preliminary screening (50, 5, 0.5 μM), Huh-7, read-out: ZIKV/Huh‐7 EC50
[28] = Huh-7, read-out: ZIKV/Huh‐7 EC50
[29] = Severe acute respiratory syndrome coronavirus 2, preliminary screening (50, 5, 0.5 μM), Vero TMPRSS, read-out: SARS‐CoV‐2/Vero TMPRSS EC50

O=C(NCCN1CCN(c2ccccc2)CC1)c1[nH]c2c(c1Cl)CCCc1ccccc1-2 [Compound 2, 3-Chloro-N-(2-(4-phenylpiperazin-1-yl)ethyl)-1,4,5,6-tetrahydrobenzo[6,7]cyclohepta[1,2-b]pyrrole-2-carboxamide]
growth inhibition (GI%) reached against cancer cell lines of the NCI-60 panel [1]: < 60% | EC50 [2, 27]: 43.9 µM | CC50 at 48 h [3]: < 50 µM

O=C(NCCN1CCN(c2ccc(Cl)cc2)CC1)c1[nH]c2c(c1Cl)CCCc1ccccc1-2 [Compound 3]
growth inhibition (GI%) reached against cancer cell lines of the NCI-60 panel [1]: < 60% | EC50 [2, 27]: 3.24 µM | CC50 at 24 h [4]: 143 µM | CC50 at 48 h [3]: 62.6 µM

O=C(NCCN1CCN(c2ccccc2Cl)CC1)c1[nH]c2c(c1Cl)CCCc1ccccc1-2 [Compound 4]
inhibition at 10 µM [5]: 60% | EC50 [2, 28]: 4.39 µM | EC50 [6, 29]: 42.5 µM | CC50 [7]: 14.7 µM | CC50 at 24 h [4]: 57.9 µM | CC50 at 48 h [3]: 59.9 µM

COc1cccc(N2CCN(CCNC(=O)c3[nH]c4c(c3Cl)CCCc3ccccc3-4)CC2)c1 [Compound 6]
inhibition at 10 µM [8]: 64% | EC50 [2, 28]: 3.24 µM | CC50 [7]: 66 µM | CC50 at 24 h [4]: 121 µM | CC50 at 48 h [3]: 53.5 µM

CCOc1ccccc1N1CCN(CCNC(=O)c2[nH]c3c(c2Cl)CCCc2ccccc2-3)CC1 [Compound 7]
inhibition at 10 µM [9]: 82.6% | inhibition at 10 µM [10]: < 60% | inhibition at 10 µM [11]: 88.8% | inhibition at 10 µM [12]: < 60% | inhibition at 10 µM [8]: 76.1% | inhibition at 10 µM [13]: 82.1% | inhibition at 10 µM [14]: < 60% | inhibition at 10 µM [15]: 72.7% | inhibition at 10 µM [16]: < 60% | inhibition at 10 µM [17]: 88.6% | inhibition at 10 µM [18]: 66.5% | inhibition at 10 µM [19]: 60.8% | inhibition at 10 µM [20]: 63.4% | inhibition at 10 µM [21]: 77.7% | inhibition at 10 µM [22]: 70% | inhibition at 10 µM [23]: < 60% | EC50 [2, 28]: 3.82 µM | EC50 [6, 29]: 37.3 µM | CC50 [7]: 5.6 µM | CC50 at 24 h [4]: 38.5 µM | CC50 at 48 h [3]: 50.7 µM

N#Cc1ccccc1N1CCN(CCNC(=O)c2[nH]c3c(c2Cl)CCCc2ccccc2-3)CC1 [Compound 8, 3-Chloro-N-(2-(4-(2-cyanophenyl)piperazin-1-yl)ethyl)-1,4,5,6-tetrahydrobenzo[6,7]cyclohepta[1,2-b]pyrrole-2-carboxamide]
inhibition at 10 µM [9]: 62.4% | inhibition at 10 µM [21]: 75.3% | EC50 [2, 27]: 2.87 µM | EC50 [6, 29]: 58.4 µM | CC50 [7]: 119 µM | CC50 at 24 h [4]: 67.5 µM | CC50 at 48 h [3]: 50.6 µM

O=C(NCCN1CCN(c2ccc(Cl)c(Cl)c2)CC1)c1[nH]c2c(c1Cl)CCCc1ccccc1-2 [Compound 9]
growth inhibition (GI%) reached against cancer cell lines of the NCI-60 panel [1]: < 60% | EC50 [2, 27]: 3.24 µM | CC50 at 24 h [4]: 67.7 µM | CC50 at 48 h [3]: 65.5 µM

COc1cccc(N2CCN(CCNC(=O)c3c(Cl)[nH]c4c3CCCc3ccccc3-4)CC2)c1 [Compound 16]
inhibition at 10 µM [9]: 77.6% | inhibition at 10 µM [10]: < 60% | inhibition at 10 µM [11]: < 60% | inhibition at 10 µM [12]: < 60% | inhibition at 10 µM [8]: < 60% | inhibition at 10 µM [13]: < 60% | inhibition at 10 µM [14]: < 60% | inhibition at 10 µM [15]: 74.9% | inhibition at 10 µM [16]: < 60% | inhibition at 10 µM [5]: 73% | inhibition at 10 µM [18]: < 60% | inhibition at 10 µM [20]: 60% | inhibition at 10 µM [21]: 88.6% | inhibition at 10 µM [22]: 73.6% | inhibition at 10 µM [23]: < 60% | CC50 [7]: 42.9 µM | CC50 at 24 h [4]: 50.2 µM

O=c1nc(NO)ccn1[C@@H]1O[C@H](CO)[C@@H](O)[C@H]1O [EIDD-1931, reference compound]
EC50 ([6]; SARS-CoV-2, VERO TMPRSS cells, 24 h, full dose-response, read-out: EC50): 0.05 µM | EC50 ([6]; preliminary screening (50, 5, 0.5 μM), Vero TMPRSS, read-out: SARS‐CoV‐2/Vero TMPRSS EC50): 0.11 µM | EC50 ([24]; IAV, MDCK cells, 48 h, full dose-response): 390 nM | IAV/MDCK SI ([24]; preliminary screening): < 24.15 | EC50 ([24]; read-out: IAV/MDCK EC50, preliminary screening (50, 5, 0.5 μM), MDCK): 2070 nM | CC50 ([25]; VERO TMPRSS cells, 24 h, full dose-response): 22.2 µM | CC50 ([25]; read-out: SARS‐CoV‐2/Vero TMPRSS CC50, preliminary screening (50, 5, 0.5 μM), Vero TMPRSS): 13.4 µM | CC50 ([26]; MDCK cells, 48 h, full dose-response): 138 µM | CC50 ([26]; read-out: IAV/MDCK CC50, preliminary screening (50, 5, 0.5 μM), MDCK): < 50 µM
